Experimental data as given in patent US4935529A, “Cytoxic substances from the marine cyanophyte hormothamnion enteromorphoides grunow” (State of Oregon acting by and through the Oregon State …, priority 1989, dated 1990).
In brackets after ≈: the same amount, converted by molar mass. Entries after “also recorded” stand apart in the source; their conditions may differ.

Legend:
[1] = tested on: several human cell lines; test: Cytotoxicity / growth inhibition of several human cell lines; type: cell-based; settings: in words
[2] = Solubility properties; type: physicochemical; settings: relative to the natural product; in words
[3] = tested on: RNA synthesis; test: Macromolecule biosynthesis: inhibition of RNA synthesis (mode of action); type: cell-based, human; settings: in words
Procedure: (§1) ^b The percentages of macromolecule biosynthesis inhibition were
(§2) calculated from the specific activities of incorporated precursors (c-e)
(§3) into 10^6 cells in drug treated as versus control cells. ID50
(§4) values were obtained by plotting the logarithmic drug concentrations
(§5) against the percentage inhibition of macromolecule biosynthesis.
(§6) ^d Exponentially growing cells pulse labeled with 2 μCi [5^3
(§7) Huridine (28 Ci/mmole) per ml of cell suspension.
(§8) Macromolecule biosynthesis in the presence of hormothamnion was measured via radioactive precursor incorporation studies using HL-60 and KB cell lines.

[4] = tested on: DNA synthesis, HL-60; test: Inhibition of DNA biosynthesis in HL-60 (3H-thymidine incorporation); type: cell-based; settings: Homo sapiens, 3H-thymidine pulse label, read-out: ID50 DNA
Procedure: as §1, §2, §3, §4, §5
(§9) ^c Exponentially growing cells pulse labeled with 1 μCi of ^3
(§10) Hthymidine (16.6 Ci/mmole) per ml of cell suspension.
as §8

[5] = tested on: Protein synthesis, HL-60; test: Inhibition of protein biosynthesis in HL-60 (3H-L-leucine incorporation); type: cell-based; settings: Homo sapiens, 3H-L-leucine pulse label, read-out: ID50 Protein
Procedure: as §1, §2, §3, §4, §5
(§11) ^e Exponentially growing cells pulse labeled with 1 μCi of ^3
(§12) HL-leucine (130 Ci/mmole) per ml of cell suspension.
as §8

[6] = tested on: P-388; test: Inhibition of cell growth, P-388; type: cell-based
Procedure: (§13) Inhibition of Cell Growth and Macromolecule Biosynthesis in -Several
(§14) Cancerous Human Cell Lines by Hormothamnione (1)
(§15) ^a ID50 is the drug concentration required to inhibit cell growt
(§16) to 50% of control levels.
as §8

[7] = tested on: RNA synthesis, HL-60; test: Inhibition of RNA biosynthesis in HL-60 (5-3H-uridine incorporation); type: cell-based; settings: Homo sapiens, 5-3H-uridine pulse label, read-out: ID50 RNA
Procedure: as §1, §2, §3, §4, §5, §6, §7, §8

[8] = tested on: RNA synthesis, KB; test: Inhibition of RNA biosynthesis in KB (5-3H-uridine incorporation); type: cell-based; settings: Homo sapiens, 5-3H-uridine pulse label, read-out: ID50 RNA
Procedure: as §1, §2, §3, §4, §5, §6, §7, §8

[9] = tested on: DNA synthesis, KB; test: Inhibition of DNA biosynthesis in KB (3H-thymidine incorporation); type: cell-based; settings: Homo sapiens, 3H-thymidine pulse label, read-out: ID50 DNA
Procedure: as §1, §2, §3, §4, §5, §9, §10, §8

[10] = tested on: Bacillus subtilus; test: Paper disc-agar plate antimicrobial test; type: cell-based
[11] = tested on: Protein synthesis, KB; test: Inhibition of protein biosynthesis in KB (3H-L-leucine incorporation); type: cell-based; settings: Homo sapiens, 3H-L-leucine pulse label, read-out: ID50 Protein
Procedure: as §1, §2, §3, §4, §5, §11, §12, §8

[12] = tested on: gram positive; test: Gram positive antimicrobial activity; type: cell-based; settings: in words
[13] = tested on: HL-60; test: Inhibition of cell growth, HL-60; type: cell-based, human
Procedure: as §13, §14, §15, §16, §8

**Q.** For `COc1cc(O)c2c(=O)c(C)c(/C=C/c3cc(O)cc(O)c3)oc2c1OC` [compound of formula (3)], which “inhibited the growth of several human cell lines” value [1] is on record?
**A.** inhibited the growth of several human cell lines

**Q.** What about the “effect on growth compared with hormothamnion” value ([1]; relative to hormothamnion) of the same compound?
**A.** less than observed with hormothamnion

**Q.** Which solubility properties [2] does the source give for `COc1c(OC)c(OC(C)=O)c2c(=O)c(C)c(/C=C/c3cc(OC(C)=O)cc(OC(C)=O)c3)oc2c1OC` [derivative (2)] here?
**A.** more favorable

**Q.** Which results are given for `COc1c(OC)c(O)c2c(=O)c(C)c(/C=C/c3cc(O)cc(O)c3)oc2c1OC` [hormothamnion]?
**A.** inhibition of RNA synthesis (mode of cytotoxic action) [3]: appears to operate via inhibition of RNA synthesis; also recorded: A major mode of cytotoxic action of hormothamnion appears to be by inhibition of RNA synthesis; inhibition of RNA synthesis (mode of cytotoxic action) ([3]; listed as Hormothamnion): selective inhibition of RNA synthesis; IC50 [4]: 0.3 µg/mL (≈ 0.749 µM); IC50 [5]: > 0.5 µg/mL; IC50 ([6]; P388, P-388, read-out: ID50 Cell Growth): 0.0046 µg/mL (≈ 0.0115 µM); cytotoxic agent to P388 lymphocytic leukemia ([6]; in words): potent; IC50 [7]: 0.001 µg/mL (≈ 0.0025 µM); IC50 [8]: 0.14 µg/mL (≈ 0.35 µM); IC50 [9]: 0.53 µg/mL (≈ 1.32 µM); cytotoxin to several human cancerous cell lines [1]: potent cytotoxin; zone of inhibition at 25 µg/disc ([10]; 25 μg per 6 mm paper disc): 8 mm; zone of inhibition at 100 µg/disc ([10]; 100 μg per 6 mm paper disc): 10 mm; IC50 [11]: > 0.5 µg/mL; gram positive antimicrobial activity [12]: minimal; IC50 ([13]; Homo sapiens, read-out: ID50 Cell Growth): 0.0001 µg/mL (≈ 0.00025 µM); cytotoxic agent to HL-60 human promyelocytic leukemia ([13]; in words): potent
